Legend:
mice [1] = test: survival rate of mice after multiple administrations of peptide; format: in vivo
Description: (§1) Other characteristics and advantages of the invention will become apparent from the example which follows relating to the preparation of the modified peptide and to the study of its activity against an autoimmune disease. Systemic lupus presents an easy clinical symptom to follow because of the large urinary protein excretion that accompanies the disorder that results from an associated renal condition, glomerulonephritis. Levels of protein secretion were followed to assess the effectiveness of the modified peptide in addressing the underlying autoimmune disorder.
(§2) The specific peptide […] (SEQ ID NO: 1), which is a 21-amino acid sequence of the 70 kDa snRNP protein corresponding to residues 131-151, was synthesized in its phosphorylated form (in the 10 position—P10). This self-protein, which is normally present in each cell, is recognized by T-cells and antibodies from lupus patients and mice as an antigen toward which the immune system is reacting, generating a so-called autoimmune reaction.

mice [2] = test: urine protein excretion in treated mice; format: in vivo
Description: as §1, §2

CD4+ T cells = test: production of IL-2 (interluekin-2) by CD4+ T cells; format: cell-based, mice
Description: as §2

RIHMVYSKRSGKPRGYAFIEY (listed as Homo sapiens) [natural (non-phosphorylated) peptide, reference compound]
improvement in the survival rate (in words) (mice [1]; mice, after administration of the peptide): unable to improve significantly the survival rate

RIHMVYSKRSGKPRGYAFIEY (lysine acetylation, position unspecified; listed as Homo sapiens) [acetylated peptide]
activity (preliminary data) (mice [1]; preliminary data, compared with the phosphorylated peptide P10): even stronger activity

RIHMVYSKRSGKPRGYAFIEY [P10]
urine protein excretion (mice [2]): reduced
survival rate (mice [1]; mice, after multiple administrations (similar to a vaccine), compared to 0%): 55%
production of IL-2 (interluekin-2) by CD4+ T cells (CD4+ T cells): increased significantly
